Source: patent publication US12414937B2, “Local and regional anesthesia and analgesia” (UNIVERSITY OF LOUISVILLE RESEARCH FOUNDATION, INC., priority 2015, dated 2025)

Experiments:
[1] = target: T1, pseudocholinesterase (Homo sapiens, UniProt P06276); conditions: plasma; cited from earlier work
T1 construct: hydrolyzed at the ester linkage in plasma by pseudocholinesterase; host or cells: plasma

[2] = test system: sensory axons (Dorsal Root); test: Compound action potential (CAP) conduction block, sensory CAP recorded at dorsal root, drug applied to lumbar plexus exposure; format: in vivo, rats
Excerpt: (§1) A surgical preparation was used to determine whether Atip acts differently on sensory or motor neurons. The procedures used were similar to those described in Petruska et al., 1998 (Experimental Brain Research 121:379-390). Briefly, adult rats received general anesthesia with ketamine/xylazine. The jugular vein, carotid artery, and trachea were intubated for the purposes of administering supplementary anesthesia, monitoring of blood pressure, and measuring end-expired CO2, respectively. Normal body temperature was maintained within 1° C. via a water-based thermal blanket. […]
(§2) Compound action potentials (CAPs) were generated by stimulating the sciatic nerve branches. The CAPs propagated centrally through the lumbar plexus to the dorsal and ventral roots where the sensory and motor CAPs (sCAP and mCAP) were detected with the recording electrodes. Effectiveness of conduction block was assessed by measuring the properties of the CAPs (peak and area) conducted through the lumbar plexus exposure and treated with drug compared to the CAPs in the control condition (vehicle or saline in the lumbar plexus exposure).
(§3) With reference to FIG. 2B, activity in response to electrical stimulation of the peroneal nerve was recorded from sensory and motor fascicles (20-30 sweeps averaged per time point). […]

[3] = test system: motor axons (Ventral Root); test: Compound action potential (CAP) conduction block, motor CAP recorded at ventral root, drug applied to lumbar plexus exposure; format: in vivo, rats; conditions: Atip applied to the nerve; FIGS. 2A-3B together
Excerpt: as §1, §2, §3

[4] = test system: sensory axons; test: Sensory CAP recordings with IV-administered Atip after Dex; format: in vivo, rats; conditions: doses indicated for use as α-2 AR antagonist
[5] = test system: small sensory axons; test: Nociceptive cutaneous trunk muscle reflex (CTMR) EMG on electrical stimulation of a treated sensory nerve; format: in vivo, rats; conditions: sensory nerve treated with Atip 20 ul, 200 uM
Experimental: To address this, a different model system was used the cutaneous trunk muscle reflex (CTMR), which was previously developed and validated for use in anesthesiology and pain experimentation (4,5).
With reference to FIG. 3B, the effects of Atip on nociceptor sensory conduction are assessed using nociceptive CTM reflex as readout.
The CTMR in rats appears as a puckering or flicking of the back skin and is elicited only by noxious natural stimulation or by electrical stimulation of sufficient strength to recruit A-delta and C-fibers (4,6,7). Activation of only very few of these sensory axons is sufficient to elicit a CTMR, making the system a “natural amplifier” for small-diameter afferent input and resulting in reflex output detectible at the EMG and behavioral level (4,8).

[6] = test system: isolated human DRG Neurons; test: Live cell calcium imaging with electric field stimulation; format: cell-based
Experimental: Live cell calcium imaging studies were conducted on isolated human DRG Neurons from post mortem donors. Cells were loaded with 3 uM Fluo 8-AM (AAT Bioquest 21081) containing 0.1% Pluronic F-127 (Sigma P2443) for 20 min. The extracellular solution contained in mM (Sigma): 145 NaCl (S3014), 3 KCl (P3911), 2 CaCl2) (C3881), 1 MgCl2 (M9272), 10 HEPES (H3375), 10 glucose (G5767) adjusted to pH 7.4 with NaOH (72068). Fluo-8-loaded cells were excited at 480 nm and emission was collected at 520 nm with a pcoEDGE sCMOS camera (PCO) mounted on an inverted microscope (Olympus IX71).
For Electric Field stimulation (EFs), images were acquired at 100 Hz for 2.5 sec applying simultaneously a train of 10 pulses (5 Hz, 10 ms). After the recording of the baseline profile at Low (1.5 to 2.0 V) and High (2.5 to 3.0 V) Voltage, a pre incubation of […] of the inhibitor is applied to the well before repeating the EFs procedure (Atip 100 uM, Atip 300 uM, Lidocaine 200 uM (Sigma L7757)). The cells that had less than 50% of the pulse response vs the baseline condition was considered inhibited. A washout of 10 min by perfusion was performed after the last EFs procedure.
Lidocaine was first prepared in stock solution using Ethanol (Sigma 459844), Atip was prepared in stock solution using DMSO (Sigma D8418). Image acquisition and data analysis were performed using MetaMorph software (Molecular Devices).
Neurons with less than 50% of the baseline response to electrical field stimulation were considered inhibited. 300 uM Atip blocked activity in 100% of the cells; 100 uM Atip achieved a 62% blockade.

[7] = test system: hTCEpi cells; test: Cytotoxicity, Alamar Blue cell viability assay; format: cell-based, human; conditions: 24 or 48 hours incubation
Experimental: Cytotoxicity studies were performed using Human telomerase-immortalized human corneal epithelial cells (hTCEpi cells—obtained through Genon Corp., Menlo Park, CA, USA). The cells were plated at a density of 30,000 cells per well of a 96-well dish in growth media (Defined Keratinocyte Media with growth supplement, Invitrogen, Grand Island, NY, USA). After 24 hours of recovery, cells were treated with either growth media alone or growth media supplemented with 0.5% DMSO (vehicle), the indicated concentration of ATIP, or 0.5% proparacaine (Akorn, Forest Lake, IL). Cells were incubated for 24 or 48 hours at 37° C. in 5% CO2. Cell viability was assessed using an Alamar Blue Assay (Thermo Fisher, Waltham, MA, USA).
With reference to FIGS. 5A and 5B, data are plotted as the fraction of viable cells compared to growth media alone+/−S.E.M (n=3).

[8] = test system: injury-sensitized dissociated rat sensory neurons; test: Patch-clamp electrophysiology, action potentials induced by depolarizing current; format: cell-based
Experimental: Studies were conducted to examine the effect of Atip administration on action potentials induced by depolarizing current. Electrophysiology in injury-sensitized dissociated rat sensory neurons was recorded with patch-clamp, using methods previously described (5).

[9] = test system: wild type, α2AAR knockout and α2CAR knock out mice; test: Paw withdrawal in response to strong pinch after subcutaneous plantar injection; format: in vivo; conditions: 5 mM subcutaneously in right plantar paw
Experimental: Studies testing the effect of Atip were also conducted in α2 receptor subunit knock-out mice. α2AAR knockout and α2CAR knock out mice were used in the study. Animals were injected with 5 mM Atip subcutaneously in their right plantar paw, and vehicle into the left plantar paw. They then received strong pinch to the paw skin and pads on each foot. Right and left paw withdrawal in response to the pinch was assessed.

T1 sequence (P06276 29-602): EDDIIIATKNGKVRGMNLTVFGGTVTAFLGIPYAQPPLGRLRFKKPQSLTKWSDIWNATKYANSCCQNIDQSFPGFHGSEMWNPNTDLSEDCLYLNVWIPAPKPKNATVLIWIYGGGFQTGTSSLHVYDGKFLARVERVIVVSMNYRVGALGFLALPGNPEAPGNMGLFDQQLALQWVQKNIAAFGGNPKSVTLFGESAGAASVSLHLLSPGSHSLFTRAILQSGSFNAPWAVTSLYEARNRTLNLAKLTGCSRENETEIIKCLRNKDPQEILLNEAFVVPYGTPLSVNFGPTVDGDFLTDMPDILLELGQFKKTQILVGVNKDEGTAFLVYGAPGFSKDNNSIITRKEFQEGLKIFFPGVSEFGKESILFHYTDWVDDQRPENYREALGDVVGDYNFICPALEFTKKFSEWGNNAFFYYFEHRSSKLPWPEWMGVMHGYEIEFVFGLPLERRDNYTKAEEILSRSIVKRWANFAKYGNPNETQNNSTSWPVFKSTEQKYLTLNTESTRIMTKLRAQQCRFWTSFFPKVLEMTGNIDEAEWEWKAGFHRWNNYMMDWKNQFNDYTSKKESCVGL

CCN(CC)CCOC(=O)c1ccc(N)cc1 [procaine]
rate of hydrolysis at the ester linkage, relative [1]: about four times faster than tetracaine

CCN(CC)CCOC(=O)c1ccc(N)cc1Cl [2-chloroprocaine]
rate of hydrolysis at the ester linkage, relative [1]: about four times faster than procaine

CCC1(c2cnc[nH]2)Cc2ccccc2C1 [Atip, 4(5)-(2,3-dihydro-2-ethyl-1H-inden-2-yl)imidazole]
reversibility of conduction block (CAP peak and area) ([2]; 100 ul Atip undiluted clinical dose 5 mg/ml topically over the nerve, then wash-out): reversible
conduction in large and small sensory axons ([2]; Atip applied to the nerve, FIGS. 2A-3B together): strongly blocks conduction
conduction in motor axons [3]: relative sparing of conduction
sensory conduction block by IV-administered Atip [4]: does not itself block conduction
EMG of CTMR, nociceptor sensory conduction [5]: blocks activity in small sensory axons
nerve toxicity (return of EMG) ([5]; not washed out): does not poison the nerve
cells with blocked activity (less than 50% of baseline response to electrical field stimulation) ([6]; 100 uM): 62%
cells with blocked activity (less than 50% of baseline response to electrical field stimulation) ([6]; 300 uM): 100%
toxicity (fraction of viable cells compared to growth media alone) versus 0.5% proparacaine [7]: reduced toxicity
action potentials induced by depolarizing current [8]: rapidly blocked
resting membrane potential [8]: does not alter the resting membrane potential
withdrawal of the Atip-injected right paw on pinch ([9]; wild type mice): no withdrawal of the right paw
withdrawal of the Atip-injected right paw on pinch ([9]; α2AAR knockout mice): no withdrawal of the right paw
withdrawal of the Atip-injected right paw on pinch ([9]; α2CAR knock out mice): no withdrawal of the right paw

CCN(CC)CC(=O)Nc1c(C)cccc1C [lidocaine, Lidocaine]
efficacy of blockade compared with Atip ([6]; 200 uM, therapeutic concentration): less efficacious than the highest tested concentration of Atip, and similar to the lowest concentration of Atip tested
